Measured values reported in patent US8552002B2 (Novartis AG, priority 2004, dated 2013).

Legend:
Type in all cases: biochemical
FGFR3 (K650E) = target: T1, FGFR3 (K650E) (Homo sapiens, UniProt P22607, K650E); assay: Recombinant GST-FGFR-3-K650E tyrosine kinase assay (33P into poly(Glu,Tyr)); settings: 10 μM; Examples 1 to 169; read-out: FGFR3 (K650E) inhibition at 10 μM
T1 construct: amino acids 411-806 of the cytoplasmic domain of human FGFR-3, N-terminally fused to GST; made in house; host or cells: Sf9 insect cells (baculovirus)

Tek = target: T2, Tek (Homo sapiens, UniProt Q02763); assay: Recombinant GST-Tek (Tie-2) tyrosine kinase assay (33P into poly(Glu,Tyr)); settings: Examples 1 to 169
T2 construct: amino acids 773-1124 of the cytoplasmic kinase domain of human Tek, N-terminally fused to GST; made in house; host or cells: Sf9 insect cells (baculovirus)
Method in brief: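 GST-fused human Tek kinase domain (aa 773-1124), baculovirus-expressed, 150 ng per reaction; 10 μg/mL poly(Glu,Tyr) 4:1, 4.0 μM [γ-33P]ATP, 3 mM MnCl2/3 mM MgCl2, pH 7.5, 30 min at ambient temperature. 33P uptake read on PVDF filters; IC50 by linear regression from four concentrations in duplicate.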

KDR = target: T3, KDR (Homo sapiens, UniProt P35968); assay: Inhibitory activity against KDR (VEGF-R2), in vitro data of Examples 170 and 207; settings: 10 μM; Examples 1 to 169; read-out: KDR inhibition at 10 μM
T3 construct: expressed in transfected cells; host or cells: CHO cells
Method in brief: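 KDR tyrosine phosphorylation detected by luminescence after overnight 4° C capture of 20 μg lysate protein with PY20:AP antibody. Lysates came from cells given compound for 2 h at 37° C, then final 20 ng/ml VEGF for 5 min; compound-free medium as control.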

T2 sequence (Q02763 773-1124): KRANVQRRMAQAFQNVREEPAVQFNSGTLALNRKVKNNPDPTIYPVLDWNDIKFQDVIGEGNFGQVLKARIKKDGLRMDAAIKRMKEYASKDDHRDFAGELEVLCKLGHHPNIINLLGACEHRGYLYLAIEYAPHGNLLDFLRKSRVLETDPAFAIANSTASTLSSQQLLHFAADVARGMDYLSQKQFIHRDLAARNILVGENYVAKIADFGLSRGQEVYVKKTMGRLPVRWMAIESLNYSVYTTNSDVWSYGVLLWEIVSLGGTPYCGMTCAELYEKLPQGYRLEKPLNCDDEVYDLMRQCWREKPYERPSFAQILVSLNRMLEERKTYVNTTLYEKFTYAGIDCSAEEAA
T1 sequence (P22607 411-806 K650E): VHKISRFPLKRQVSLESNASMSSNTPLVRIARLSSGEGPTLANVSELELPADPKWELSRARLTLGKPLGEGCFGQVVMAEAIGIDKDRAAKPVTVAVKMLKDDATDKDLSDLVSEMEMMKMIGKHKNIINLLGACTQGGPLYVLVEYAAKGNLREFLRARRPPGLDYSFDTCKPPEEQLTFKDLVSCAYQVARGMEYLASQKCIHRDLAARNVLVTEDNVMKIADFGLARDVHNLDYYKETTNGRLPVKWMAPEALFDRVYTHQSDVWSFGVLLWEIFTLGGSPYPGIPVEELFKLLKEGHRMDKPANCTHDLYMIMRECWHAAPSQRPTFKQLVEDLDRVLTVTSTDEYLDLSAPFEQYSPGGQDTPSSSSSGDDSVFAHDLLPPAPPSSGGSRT
T3 sequence (P35968 20-1356): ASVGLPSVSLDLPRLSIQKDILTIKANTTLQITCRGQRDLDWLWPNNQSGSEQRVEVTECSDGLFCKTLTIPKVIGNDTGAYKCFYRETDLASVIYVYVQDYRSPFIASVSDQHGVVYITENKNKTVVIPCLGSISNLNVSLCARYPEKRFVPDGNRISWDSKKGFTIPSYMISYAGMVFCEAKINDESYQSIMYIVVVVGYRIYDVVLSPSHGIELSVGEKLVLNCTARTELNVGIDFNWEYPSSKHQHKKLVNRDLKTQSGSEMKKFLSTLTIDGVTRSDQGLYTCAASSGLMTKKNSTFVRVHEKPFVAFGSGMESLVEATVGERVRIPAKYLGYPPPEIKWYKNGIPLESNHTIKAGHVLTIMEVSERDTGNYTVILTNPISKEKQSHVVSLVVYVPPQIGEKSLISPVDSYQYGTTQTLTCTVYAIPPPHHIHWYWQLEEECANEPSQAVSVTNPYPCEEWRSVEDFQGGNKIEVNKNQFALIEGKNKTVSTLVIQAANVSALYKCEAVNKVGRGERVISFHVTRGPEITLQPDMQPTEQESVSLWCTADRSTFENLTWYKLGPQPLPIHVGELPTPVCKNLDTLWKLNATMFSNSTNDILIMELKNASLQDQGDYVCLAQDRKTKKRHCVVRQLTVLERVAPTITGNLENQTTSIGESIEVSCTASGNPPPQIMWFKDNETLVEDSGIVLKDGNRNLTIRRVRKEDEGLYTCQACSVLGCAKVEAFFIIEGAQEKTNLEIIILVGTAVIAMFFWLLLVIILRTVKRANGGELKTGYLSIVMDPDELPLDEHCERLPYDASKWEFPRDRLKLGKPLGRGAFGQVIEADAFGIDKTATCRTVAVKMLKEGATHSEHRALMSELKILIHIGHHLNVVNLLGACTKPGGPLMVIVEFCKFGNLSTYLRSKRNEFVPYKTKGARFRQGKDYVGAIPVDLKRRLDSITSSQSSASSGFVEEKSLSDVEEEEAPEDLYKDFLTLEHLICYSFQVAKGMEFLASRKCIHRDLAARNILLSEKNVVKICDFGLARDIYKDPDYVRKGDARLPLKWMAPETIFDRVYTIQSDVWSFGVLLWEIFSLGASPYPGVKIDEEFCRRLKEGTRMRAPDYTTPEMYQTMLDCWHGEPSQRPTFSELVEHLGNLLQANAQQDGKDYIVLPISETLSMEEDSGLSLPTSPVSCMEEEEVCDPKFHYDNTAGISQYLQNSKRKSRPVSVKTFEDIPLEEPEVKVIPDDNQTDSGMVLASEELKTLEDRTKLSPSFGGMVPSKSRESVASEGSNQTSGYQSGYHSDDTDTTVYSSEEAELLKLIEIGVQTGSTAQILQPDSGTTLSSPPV

SMILES | inhibition at 10 µM (FGFR3 (K650E)) | inhibition at 10 µM (Tek) | inhibition at 10 µM (KDR)
COc1cc(NC(=O)N(C)c2cc(Nc3cccc(OCCN(C)C)c3)ncn2)c(Cl)c(OC)c1 [Example 54, 3-(2-Chloro-3,5-dimethoxy-phenyl)-1-{6-[3-(2-dimethylamino-ethoxy)-phenylamino]-pyrimidin-4-yl}-1-methyl-urea] | 27 to 100% | 12 to 100% | 67 to 100%
COc1cc(NC(=O)N(Cc2cccs2)c2cc(Nc3ccc(N4CCN(C)CC4)cc3)ncn2)c(Cl)c(OC)c1 [Example 56, 3-(2-Chloro-3,5-dimethoxy-phenyl)-1-{6-[4-(4-methyl-piperazin-1-yl)-phenylamino]-pyrimidin-4-yl}-1-thiophen-2-ylmethyl-urea] | 27 to 100% | 12 to 100% | 67 to 100%
COc1cc(NC(=O)N(CCN2CCN(C)CC2)c2cc(Nc3ccccc3)ncn2)c(Cl)c(OC)c1 [Example 57, 3-(2-Chloro-3,5-dimethoxy-phenyl)-1-[2-(4-methyl-piperazin-1-yl)-ethyl]-1-(6-phenylamino-pyrimidin-4-yl)-urea] | 27 to 100% | 12 to 100% | 67 to 100%
COc1cc(NC(=O)N(CCc2ccccn2)c2cc(Nc3ccccc3)ncn2)c(Cl)c(OC)c1 [Example 58, 3-(2-Chloro-3,5-dimethoxy-phenyl)-1-(6-phenylamino-pyrimidin-4-yl)-1-(2-pyridin-2-yl-ethyl)-urea] | 27 to 100% | 12 to 100% | 67 to 100%
CCN(C(=O)Nc1c(Cl)ccc(OC)c1Cl)c1cc(Nc2ccc(N3CCN(C)CC3)cc2)ncn1 [Example 59, 3-(2,6-Dichloro-3-methoxy-phenyl)-1-ethyl-1-{6-[4-(4-methyl-piperazin-1-yl)-phenylamino]-pyrimidin-4-yl}-urea] | 27 to 100% | 12 to 100% | 67 to 100%
COc1ccc(Cl)c(NC(=O)N(C)c2cc(Nc3cccc(N4CCN(C)CC4)c3)ncn2)c1Cl [Example 60, 3-(2,6-Dichloro-3-methoxy-phenyl)-1-methyl-1-{6-[3-(4-methyl-piperazin-1-yl)-phenylamino]-pyrimidin-4-yl}-urea] | 27 to 100% | 12 to 100% | 67 to 100%
COc1ccc(Cl)c(NC(=O)N(C)c2cc(Nc3ccc(C(=O)N4CCN(C)CC4)cc3)ncn2)c1Cl [Example 61, 3-(2,6-Dichloro-3-methoxy-phenyl)-1-methyl-1-{6-[4-(4-methyl-piperazine-1-carbonyl)-phenylamino]-pyrimidin-4-yl}-urea] | 27 to 100% | 12 to 100% | 67 to 100%
COc1ccc(Cl)c(NC(=O)N(C)c2cc(Nc3ccc(CN4CCN(C)CC4)cc3)ncn2)c1Cl [Example 62, 3-(2,6-Dichloro-3-methoxy-phenyl)-1-methyl-1-{6-[4-(4-methyl-piperazin-1-ylmethyl)-phenylamino]-pyrimidin-4-yl}-urea] | 27 to 100% | 12 to 100% | 67 to 100%
COc1ccc(CN(C(=O)Nc2c(Cl)ccc(OC)c2Cl)c2cc(Nc3ccc(N4CCN(C)CC4)cc3)ncn2)cn1 [Example 63, 3-(2,6-Dichloro-3-methoxy-phenyl)-1-(6-methoxy-pyridin-3-ylmethyl)-1-{6-[4-(4-methyl-piperazin-1-yl)-phenylamino]-pyrimidin-4-yl}-urea] | 27 to 100% | 12 to 100% | 67 to 100%
CCN(C(=O)Nc1c(Cl)c(OC)cc(OC)c1Cl)c1cc(Nc2ccc(C(=O)N3CCN(C)CC3)cc2)ncn1 [Example 64, 3-(2,6-Dichloro-3,5-dimethoxy-phenyl)-1-ethyl-1-{6-[4-(4-methyl-piperazine-1-carbonyl)-phenylamino]-pyrimidin-4-yl}-urea] | 27 to 100% | 12 to 100% | 67 to 100%
COc1ccc(Cl)cc1NC(=O)Nc1cc(Nc2ccc(N3CCN(C)CC3)cc2)ncn1 [Example 78, 1-(5-Chloro-2-methoxy-phenyl)-3-{6-[4-(4-methyl-piperazin-1-yl)-phenylamino]-pyrimidin-4-yl}-urea] | 27 to 100% | 12 to 100% | 67 to 100%
O=C(Nc1cc(N[C@H]2CC[C@H](O)CC2)ncn1)Nc1c(Cl)cccc1Cl [Example 92, 1-(2,6-Dichloro-phenyl)-3-[6-((trans)-4-hydroxy-cyclohexylamino)-pyrimidin-4-yl]-urea] | 27 to 100% | 12 to 100% | 67 to 100%
CN1CCN(c2ccc(Nc3cc(NC(=O)Nc4ccccc4Cl)ncn3)cc2)CC1 [Example 93, 1-(2-Chloro-phenyl)-3-{6-[4-(4-methyl-piperazin-1-yl)-phenylamino]-pyrimidin-4-yl}-urea] | 27 to 100% | 12 to 100% | 67 to 100%
CN1CCN(c2ccc(Nc3cc(NC(=O)Nc4ccccc4Br)ncn3)cc2)CC1 [Example 94, 1-(2-Bromo-phenyl)-3-{6-[4-(4-methyl-piperazin-1-yl)-phenylamino]-pyrimidin-4-yl}-urea] | 27 to 100% | 12 to 100% | 67 to 100%
CCN(CC)CCCOc1ccc(N(C(=O)Nc2ccccc2Cl)c2cc(N)ncn2)cc1 [Example 95, 1-(6-Amino-pyrimidin-4-yl}-3-(2-chloro-phenyl)-1-[4-(3-diethylamino-propoxy)-phenyl]-urea] | 27 to 100% | 12 to 100% | 67 to 100%
O=C(Nc1cc(Nc2ccc(OCCN3CCOCC3)cc2)ncn1)Nc1c(Cl)cccc1Cl [Example 96, 1-(2,6-Dichloro-phenyl)-3-{6-[4-(2-morpholin-4-yl-ethoxy)-phenylamino]-pyrimidin-4-yl}-urea] | 27 to 100% | 12 to 100% | 67 to 100%
O=C(Nc1cc(Nc2ccc(OCCN3CCOCC3)cc2)ncn1)Nc1ccccc1Br [Example 97, 1-(2-Bromo-phenyl)-3-{6-[4-(2-morpholin-4-yl-ethoxy)-phenylamino]-pyrimidin-4-yl}-urea] | 27 to 100% | 12 to 100% | 67 to 100%
O=C(Nc1cc(Nc2ccc(OCCCN3CCOCC3)cc2)ncn1)Nc1c(Cl)cccc1Cl [Example 98, 1-(2,6-Dichloro-phenyl)-3-{6-[4-(3-morpholin-4-yl-propoxy)-phenylamino]-pyrimidin-4-yl}-urea] | 27 to 100% | 12 to 100% | 67 to 100%
O=C(Nc1cc(Nc2ccc(OCCCN3CCOCC3)cc2)ncn1)Nc1ccccc1Br [Example 99, 1-(2-Bromo-phenyl)-3-{6-[4-(3-morpholin-4-yl-propoxy)-phenylamino]-pyrimidin-4-yl}-urea] | 27 to 100% | 12 to 100% | 67 to 100%
CCN(CC)CCOc1ccc(Nc2cc(NC(=O)Nc3c(Cl)cccc3Cl)ncn2)cc1 [Example 100, 1-(2,6-Dichloro-Phenyl)-3-{6-[4-(2-diethylamino-ethoxy)-phenylamino]-pyrimidin-4-yl}-urea] | 27 to 100% | 12 to 100% | 67 to 100%
CCN(CC)CCOc1ccc(Nc2cc(NC(=O)Nc3ccccc3Br)ncn2)cc1 [Example 101, 1-(2-Bromo-phenyl)-3-{6-[4-(2-diethylamino-ethoxy)-phenylamino]-pyrimidin-4-yl}-urea] | 27 to 100% | 12 to 100% | 67 to 100%
